# US10079346B2, “Heteroaromatic compounds for organic electronics” (BASF SE, priority 2014, dated 2018)
# Like-named read-outs stand apart in the source and are kept apart here.
# Assay: Solubility at 25° C. in organic solvents (Example 15)
# Assay type: physicochemical
# Details: organic solvent or mixture
# [1] = chlorobenzene, clorobenzene, read-out: Solubility in clorobenzene
# [2] = CHCl3, read-out: Solubility in CHCl3
# [3] = DMF, read-out: Solubility in DMF
# [4] = THF, read-out: Solubility in THF
solubility [1],solubility [2],solubility [3],solubility [4],SMILES
5000 to 10000 µg/mL,5000 to 10000 µg/mL,1000 to 5000 µg/mL,1000 to 5000 µg/mL,CC(C)(C)OC(=O)n1c2c(c3c1=Nc1ccccc1S3)Sc1ccccc1N=2 [Compound 1a]
> 10000 µg/mL,> 10000 µg/mL,< 1000 µg/mL,> 10000 µg/mL,CCCCCCCc1ccc2c(c1)N=c1c(c3c(n1C(=O)OC(C)(C)C)=Nc1cc(CCCCCCC)ccc1S3)S2 [Compound 1c]
> 10000 µg/mL,> 10000 µg/mL,> 10000 µg/mL,> 10000 µg/mL,CCCCCCCCCCCCc1ccc2c(c1)N=c1c(c3c(n1C(=O)OC(C)(C)C)=Nc1cc(CCCCCCCCCCCC)ccc1S3)S2 [Compound 1d]
< 1000 µg/mL,< 1000 µg/mL,< 1000 µg/mL,< 1000 µg/mL,"c1ccc2c(c1)N=c1[nH]c3c(c1S2)Sc1ccccc1N=3 [Compound 2a, reference compound]"
